In ChEMBL document CHEMBL1131388, “Synthesis and antitumor activity of 4-phenyl-1-arylsulfonyl imidazolidinones” (Bioorg Med Chem Lett, 1998):

What was measured:
[1] = system: A549; experiment: Cytotoxicity against human lung carcinoma A549 cell line using MTT assay
[2] = system: K562; experiment: Cytotoxicity against human chronic myelogenous leukemia (K562) cell line using MTT assay; type: functional, cell-based
[3] = system: SK-OV-3; experiment: Cytotoxicity against human ovarian adenocarcinoma (SK-OV-3) cell line using MTT assay; type: functional, cell-based
[4] = system: NCI-H23; experiment: Antitumor activity was evaluated against human lung carcinoma (NCI-H23) as body weight change in human tumor xenograft mice upon peroral administration at a dose of 65 mg/kg; type: functional; settings: route oral
[5] = system: NCI-H23; experiment: Antitumor activity was evaluated against human lung carcinoma (NCI-H23) as tumor growth inhibition in human tumor xenograft mice upon peroral administration at a dose of 65 mg/kg; type: functional; settings: Mus musculus, route oral, read-out: TGI
[6] = system: SW-620; experiment: Antitumor activity was evaluated against human colon carcinoma (SW620) as tumor growth inhibition in human tumor xenograft mice upon peroral administration at a dose of 65 mg/kg; type: functional; settings: Mus musculus, route oral, read-out: TGI
[7] = system: SW-620; experiment: Antitumor activity was evaluated against human colon carcinoma (SW620) as body weight change in human tumor xenograft mice upon peroral administration at a dose of 65 mg/kg; type: functional; settings: route oral
[8] = Antitumor activity was evaluated against Lewis lung carcinoma as body weight change in BDF1 mice upon peroral administration at a dose of 100 mg/kg; type: functional, Mus musculus; settings: route oral
[9] = system: Colon 26; experiment: Antitumor activity was evaluated against murine colon carcinoma (Colon26) as body weight change in BALB/c mice upon peroral administration at a dose of 65 mg/kg; type: functional, Mus musculus; settings: route oral
[10] = Antitumor activity was evaluated against Lewis lung carcinoma as tumor growth inhibition was determined in BDF1 mice upon peroral administration at a dose of 100 mg/kg; type: functional; settings: Mus musculus, route oral, read-out: TGI
[11] = system: Colon 26; experiment: Antitumor activity was evaluated against murine colon carcinoma (Colon26) as tumor growth inhibition was determined in BALB/c mice upon peroral administration at a dose of 65 mg/kg; type: functional; settings: Mus musculus, route oral, read-out: TGI
[12] = Antitumor activity was evaluated against Lewis lung carcinoma as body weight change in BDF1 mice upon intraperitoneal administration at a dose of 4 mg/kg; type: functional, Mus musculus
[13] = system: Colon 26; experiment: Antitumor activity was evaluated against murine colon carcinoma (Colon26) as body weight change in BALB/c mice upon intraperitoneal administration at a dose of 4 mg/kg; type: functional, Mus musculus
[14] = system: Colon 26; experiment: Antitumor activity was evaluated against murine colon carcinoma (Colon26) as tumor growth inhibition was determined in BALB/c mice upon intraperitoneal administration at a dose of 4 mg/kg; type: functional, Mus musculus
[15] = Antitumor activity was evaluated against Lewis lung carcinoma as tumor growth inhibition was determined in BDF1 mice upon intraperitoneal administration at a dose of 4 mg/kg; type: functional, Mus musculus
[16] = system: NCI-H23; experiment: Antitumor activity was evaluated against human lung carcinoma (NCI-H23) as tumor growth inhibition in human tumor xenograft mice upon intraperitoneal administration at doses of 1,2,3mg/kg; type: functional
[17] = system: SW-620; experiment: Antitumor activity was evaluated against human colon carcinoma (SW620) as body weight change in human tumor xenograft mice upon intraperitoneal administration at doses of 1,2,3mg/kg; type: functional
[18] = system: NCI-H23; experiment: Antitumor activity was evaluated against human lung carcinoma (NCI-H23) as body weight change in human tumor xenograft mice upon intraperitoneal administration at doses of 1,2,3mg/kg; type: functional
[19] = system: SW-620; experiment: Antitumor activity was evaluated against human colon carcinoma (SW620) as tumor growth inhibition in human tumor xenograft mice upon intraperitoneal administration at doses of 1,2,3mg/kg; type: functional

Structure (SMILES)	IC50 [1]	IC50 [2]	IC50 [3]	further results
O=C(c1ccccc1)N1CCc2cc(S(=O)(=O)N3CC(c4ccccc4)NC3=O)ccc21 (stereo not drawn)	0.44 µM	4.12 µM	0.56 µM	
O=C1NC(c2ccccc2)CN1S(=O)(=O)c1ccc2c(c1)CCC2 (stereo not drawn)	4.74 µM	42.7 µM	12.1 µM	
Nc1ccc(C(=O)N2CCc3cc(S(=O)(=O)N4CC(c5ccccc5)NC4=O)ccc32)cc1 (stereo not drawn)	0.2 µM	0.44 µM	1.24 µM	Body weight change [4]: 0.6 g; inhibition in vivo at 65 mg/kg [5]: 67%; inhibition in vivo at 65 mg/kg [6]: 87%; Body weight change [7]: 1 g; Body weight change [8]: -1 g; Body weight change [9]: 0.4 g; inhibition in vivo at 100 mg/kg [10]: 84.3%; inhibition in vivo at 65 mg/kg [11]: 55.6%
O=C(Nc1ccc(Cl)cc1)NS(=O)(=O)c1ccc2c(c1)CCC2 [SULOFENUR]	36.4 µM	50.1 µM	223 µM	
O=C(c1ccc([N+](=O)[O-])cc1)N1CCc2cc(S(=O)(=O)N3CC(c4ccccc4)NC3=O)ccc21 (stereo not drawn)	3.45 µM	18 µM	4.24 µM	
COc1cccc2c1C(=O)c1c(O)c3c(c(O)c1C2=O)C[C@@](O)(C(=O)CO)C[C@@H]3O[C@H]1C[C@H](N)[C@H](O)[C@H](C)O1 [DOXORUBICIN]		1.77 µM	4.15 µM	Body weight change [12]: 2 g; Body weight change [13]: 3 g; TCI [14]: 42.5%; TCI [15]: 60.4%; TCI [16]: 39%; Body weight change [17]: -2.6 g; Body weight change [18]: -2.6 g; TCI [19]: 49%
